{
  "source": "BindingDB's records for patent US10851102",
  "about": "(Theravance Biopharma R&D Ip, 2020)",
  "key": {"[1]": {"target": "Tyrosine-protein kinase JAK2 (Homo sapiens, UniProt O60674)", "sequence (O60674 whole entry)": "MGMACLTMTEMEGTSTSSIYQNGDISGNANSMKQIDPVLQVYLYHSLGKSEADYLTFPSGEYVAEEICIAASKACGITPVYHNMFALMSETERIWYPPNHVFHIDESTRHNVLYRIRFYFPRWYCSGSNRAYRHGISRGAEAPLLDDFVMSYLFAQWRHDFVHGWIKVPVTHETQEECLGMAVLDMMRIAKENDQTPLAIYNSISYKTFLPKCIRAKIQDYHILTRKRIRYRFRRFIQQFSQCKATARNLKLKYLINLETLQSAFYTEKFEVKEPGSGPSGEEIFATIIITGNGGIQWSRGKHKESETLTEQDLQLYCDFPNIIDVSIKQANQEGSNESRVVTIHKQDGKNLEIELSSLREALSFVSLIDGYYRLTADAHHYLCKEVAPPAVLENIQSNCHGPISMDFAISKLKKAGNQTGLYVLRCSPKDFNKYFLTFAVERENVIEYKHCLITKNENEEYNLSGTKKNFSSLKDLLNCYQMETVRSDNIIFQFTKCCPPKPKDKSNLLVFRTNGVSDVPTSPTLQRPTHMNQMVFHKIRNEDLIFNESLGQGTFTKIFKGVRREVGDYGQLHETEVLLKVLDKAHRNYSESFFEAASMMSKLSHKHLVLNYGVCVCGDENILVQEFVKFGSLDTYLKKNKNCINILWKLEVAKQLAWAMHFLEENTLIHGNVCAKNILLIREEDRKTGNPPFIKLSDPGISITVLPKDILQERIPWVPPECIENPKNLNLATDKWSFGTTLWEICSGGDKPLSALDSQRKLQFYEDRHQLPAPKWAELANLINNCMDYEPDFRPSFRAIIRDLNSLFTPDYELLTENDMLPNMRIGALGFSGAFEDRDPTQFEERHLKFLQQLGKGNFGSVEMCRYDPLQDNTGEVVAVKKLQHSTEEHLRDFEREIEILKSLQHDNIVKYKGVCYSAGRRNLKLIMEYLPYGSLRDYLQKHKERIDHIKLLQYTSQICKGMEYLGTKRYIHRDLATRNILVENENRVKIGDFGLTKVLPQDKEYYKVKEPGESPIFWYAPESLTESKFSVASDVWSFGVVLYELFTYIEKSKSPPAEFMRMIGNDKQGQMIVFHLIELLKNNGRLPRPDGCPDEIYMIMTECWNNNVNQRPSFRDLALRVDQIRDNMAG"}, "[2]": {"target": "T1, Tyrosine-protein kinase JAK3 (Homo sapiens, UniProt P52333)", "T1 sequence (P52333 whole entry)": "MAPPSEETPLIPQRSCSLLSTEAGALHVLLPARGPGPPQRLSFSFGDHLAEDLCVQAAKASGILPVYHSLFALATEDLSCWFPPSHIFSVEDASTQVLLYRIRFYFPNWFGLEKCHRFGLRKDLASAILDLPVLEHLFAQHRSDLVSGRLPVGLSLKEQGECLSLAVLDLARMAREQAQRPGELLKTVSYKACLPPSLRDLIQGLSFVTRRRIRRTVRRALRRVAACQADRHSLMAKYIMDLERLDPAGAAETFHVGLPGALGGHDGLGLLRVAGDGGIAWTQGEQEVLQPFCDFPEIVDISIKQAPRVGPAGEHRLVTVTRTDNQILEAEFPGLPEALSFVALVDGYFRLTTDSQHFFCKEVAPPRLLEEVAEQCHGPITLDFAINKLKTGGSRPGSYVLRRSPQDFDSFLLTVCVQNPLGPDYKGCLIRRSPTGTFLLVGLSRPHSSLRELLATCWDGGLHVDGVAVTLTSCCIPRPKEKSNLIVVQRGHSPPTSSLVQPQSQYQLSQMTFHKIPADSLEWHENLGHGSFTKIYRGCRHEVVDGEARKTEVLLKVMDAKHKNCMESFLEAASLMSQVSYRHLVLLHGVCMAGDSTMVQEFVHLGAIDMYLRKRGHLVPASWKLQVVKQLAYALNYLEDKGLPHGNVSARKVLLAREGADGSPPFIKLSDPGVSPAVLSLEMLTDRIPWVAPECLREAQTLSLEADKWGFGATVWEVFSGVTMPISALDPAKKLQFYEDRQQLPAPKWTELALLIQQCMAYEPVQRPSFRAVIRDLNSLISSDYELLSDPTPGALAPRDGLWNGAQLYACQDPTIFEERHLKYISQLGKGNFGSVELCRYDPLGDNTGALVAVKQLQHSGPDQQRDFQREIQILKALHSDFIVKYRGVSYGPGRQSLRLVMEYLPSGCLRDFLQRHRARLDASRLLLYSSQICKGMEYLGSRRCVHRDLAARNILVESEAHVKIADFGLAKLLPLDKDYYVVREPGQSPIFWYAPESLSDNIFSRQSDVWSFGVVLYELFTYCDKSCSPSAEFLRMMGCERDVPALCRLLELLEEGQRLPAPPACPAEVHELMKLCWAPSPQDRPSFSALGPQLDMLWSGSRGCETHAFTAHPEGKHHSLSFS"}, "[3]": {"target": "Non-receptor tyrosine-protein kinase TYK2 (Homo sapiens, UniProt P29597)", "sequence (P29597 whole entry)": "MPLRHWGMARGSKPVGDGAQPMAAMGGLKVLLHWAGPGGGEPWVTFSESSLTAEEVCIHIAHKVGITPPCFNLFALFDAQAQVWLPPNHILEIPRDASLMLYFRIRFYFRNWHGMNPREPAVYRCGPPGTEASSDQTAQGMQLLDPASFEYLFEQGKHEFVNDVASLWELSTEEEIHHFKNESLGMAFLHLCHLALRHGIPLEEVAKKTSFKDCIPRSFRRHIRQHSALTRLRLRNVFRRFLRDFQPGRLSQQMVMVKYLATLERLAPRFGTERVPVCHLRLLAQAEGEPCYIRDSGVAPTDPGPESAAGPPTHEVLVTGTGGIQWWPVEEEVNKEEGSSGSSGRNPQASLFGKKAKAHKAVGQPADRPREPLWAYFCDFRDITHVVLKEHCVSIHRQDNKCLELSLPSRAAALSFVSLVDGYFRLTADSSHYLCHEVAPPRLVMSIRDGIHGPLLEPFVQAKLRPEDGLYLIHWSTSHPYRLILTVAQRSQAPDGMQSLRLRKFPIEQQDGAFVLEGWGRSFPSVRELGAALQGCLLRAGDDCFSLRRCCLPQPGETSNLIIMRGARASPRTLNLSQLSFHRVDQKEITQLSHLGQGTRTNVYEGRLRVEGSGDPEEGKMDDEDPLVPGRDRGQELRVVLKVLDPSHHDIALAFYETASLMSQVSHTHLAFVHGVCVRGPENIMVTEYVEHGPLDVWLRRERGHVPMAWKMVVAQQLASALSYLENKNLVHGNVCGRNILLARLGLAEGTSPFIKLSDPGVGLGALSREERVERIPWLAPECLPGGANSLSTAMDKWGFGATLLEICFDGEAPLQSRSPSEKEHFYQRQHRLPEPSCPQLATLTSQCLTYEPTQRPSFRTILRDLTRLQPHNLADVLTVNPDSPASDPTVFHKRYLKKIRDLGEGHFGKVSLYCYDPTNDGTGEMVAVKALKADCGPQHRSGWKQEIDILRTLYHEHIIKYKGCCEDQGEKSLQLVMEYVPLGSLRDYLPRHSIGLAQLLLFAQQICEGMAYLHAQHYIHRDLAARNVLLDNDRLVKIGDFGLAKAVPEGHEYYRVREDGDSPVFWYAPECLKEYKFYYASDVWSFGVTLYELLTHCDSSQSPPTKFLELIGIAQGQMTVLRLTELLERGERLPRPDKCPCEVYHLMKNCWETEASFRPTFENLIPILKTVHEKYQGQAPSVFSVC"}},
  "data": [
    {"smiles": "C=CC(=O)N1[C@@H]2CC[C@H]1C[C@H](Oc1cc(-c3ccc(O)cc3)cn3cncc13)C2", "note": "[US10851102, Example 10]", "values": [
      {"measurement": "Ki", "setting": "[1]", "result": "> 0.1", "unit": "µM"},
      {"measurement": "Ki", "setting": "[2]", "result": "< 0.0001", "unit": "µM"},
      {"measurement": "Ki", "setting": "[3]", "result": "> 0.1", "unit": "µM"}
    ]}
  ]
}
